Measurements taken from publication PMC11062922 (Nature Chemical Biology, 2023).
Each block holds one molecule with its values, some of them ahead of it.

What was measured:
[1] = biological target: T1, PAK4 (Homo sapiens, UniProt O96013); assay: Kinobeads full dose-response competition binding: PAK4; details: Gene Name PAK4
T1 construct: a mixture of lysates from five cancer cell lines; endogenous in cells

[2] = biological target: T2, GSK3B (Homo sapiens, UniProt P49841); assay: Kinobeads full dose-response competition binding: GSK3B; details: Gene Name GSK3B
T2 construct: endogenous in cells

[3] = biological target: T3, PKN1 (Homo sapiens, UniProt Q16512); assay: Kinobeads full dose-response competition binding: PKN1; details: Gene Name PKN1, DMSO = 1
T3 construct: a mixture of lysates from five cancer cell lines; endogenous in cells

[4] = biological target: T4, PRKX (Homo sapiens, UniProt P51817); assay: Kinobeads full dose-response competition binding: PRKX; details: Gene Name PRKX
T4 construct: endogenous in cells
T4 sequence (P51817 1-358): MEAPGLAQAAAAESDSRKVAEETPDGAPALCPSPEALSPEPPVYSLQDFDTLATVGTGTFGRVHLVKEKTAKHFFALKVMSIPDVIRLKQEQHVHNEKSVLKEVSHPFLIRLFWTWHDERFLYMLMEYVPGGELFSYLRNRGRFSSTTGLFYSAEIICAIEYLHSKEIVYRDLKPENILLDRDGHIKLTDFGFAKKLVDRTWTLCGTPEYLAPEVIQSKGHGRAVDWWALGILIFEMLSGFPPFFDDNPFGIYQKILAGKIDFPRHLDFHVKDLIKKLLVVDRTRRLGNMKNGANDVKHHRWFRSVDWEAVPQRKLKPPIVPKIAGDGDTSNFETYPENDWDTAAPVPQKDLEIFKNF

[5] = biological target: T5, GRK6 (Homo sapiens, UniProt P43250); assay: Kinobeads two-dose competition binding: GRK6; details: target GRK6
T5 construct: endogenous in cells

[6] = test system: AIFM1; assay: Kinobeads competition binding: AIFM1; design: species or system human; details: target AIFM1
[7] = biological target: T6, AURKB (Homo sapiens, UniProt Q96GD4); assay: Kinobeads competition binding: AURKB; details: target AURKB
T6 construct: endogenous in cells

[8] = test system: CAMK4; assay: Kinobeads competition binding: CAMK4; design: species or system human; details: target CAMK4;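 further: selectivity score: engagement of this protein divided by summed engagement of all targets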
[9] = biological target: T7, CAMKK2 (Homo sapiens, UniProt Q96RR4); assay: Kinobeads competition binding: CAMKK2; details: target CAMKK2
T7 construct: endogenous in cells
From the text: Supplement 41589_2023_1459_MOESM4_ESM.xlsx, sheet "CATDS matrix" | column: CAMKK2

[10] = test system: CDK10; assay: Kinobeads competition binding: CDK10; design: species or system human; details: target CDK10
[11] = test system: CDK9; assay: Kinobeads competition binding: CDK9; design: species or system human; details: target CDK9
[12] = test system: ERCC2; assay: Kinobeads competition binding: ERCC2; design: species or system human; details: target ERCC2
[13] = biological target: T8, GSK3A (Homo sapiens, UniProt P49840); assay: Kinobeads competition binding: GSK3A; details: target GSK3A
T8 construct: endogenous in cells

[14] = test system: IGF1R; assay: Kinobeads competition binding: IGF1R; design: species or system human; details: target IGF1R;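 further: selectivity score: engagement of this protein divided by summed engagement of all targets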
[15] = biological target: T9, MAPK14 (Homo sapiens, UniProt Q16539); assay: Kinobeads competition binding: MAPK14; details: target MAPK14
T9 construct: endogenous in cells

[16] = test system: MARK2; assay: Kinobeads competition binding: MARK2; design: species or system human; details: target MARK2
[17] = test system: MTOR; assay: Kinobeads competition binding: MTOR; design: species or system human; details: target MTOR
[18] = test system: NEK1; assay: Kinobeads competition binding: NEK1; design: species or system human; details: target NEK1
[19] = biological target: T10, PIK3CD (Homo sapiens, UniProt O00329); assay: Kinobeads competition binding: PIK3CD; details: target PIK3CD
T10 construct: a mixture of lysates from five cancer cell lines; endogenous in cells

[20] = biological target: T11, PIM2 (Homo sapiens, UniProt Q9P1W9); assay: Kinobeads competition binding: PIM2; details: target PIM2
T11 construct: a mixture of lysates from five cancer cell lines; endogenous in cells
From the text: Supplement 41589_2023_1459_MOESM4_ESM.xlsx, sheet "CATDS matrix" | column: PIM2

[21] = biological target: T12, PIM3 (Homo sapiens, UniProt Q86V86); assay: Kinobeads competition binding: PIM3; details: target PIM3
T12 construct: a mixture of lysates from five cancer cell lines; endogenous in cells
From the text: Supplement 41589_2023_1459_MOESM4_ESM.xlsx, sheet "CATDS matrix" | column: PIM3

[22] = biological target: ADCK3 (Homo sapiens, UniProt Q8NI60); assay: Kinobeads competition binding: ADCK3; design: endogenous in cells; details: target ADCK3
[23] = EC50 with Correction, doses in nM, read-out: apparent Kd
[24] = eight-dose curve fit, doses in nM

T6 sequence (Q96GD4 whole entry): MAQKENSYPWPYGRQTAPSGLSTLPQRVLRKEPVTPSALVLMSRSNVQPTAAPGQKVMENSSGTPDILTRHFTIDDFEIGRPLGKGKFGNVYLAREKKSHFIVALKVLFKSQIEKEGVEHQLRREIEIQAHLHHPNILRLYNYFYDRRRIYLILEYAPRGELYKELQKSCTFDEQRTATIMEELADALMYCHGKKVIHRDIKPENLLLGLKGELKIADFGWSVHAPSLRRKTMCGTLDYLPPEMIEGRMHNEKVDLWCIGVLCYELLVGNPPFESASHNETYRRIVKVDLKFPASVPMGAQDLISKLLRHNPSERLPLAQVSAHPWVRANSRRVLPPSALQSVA
T11 sequence (Q9P1W9 whole entry): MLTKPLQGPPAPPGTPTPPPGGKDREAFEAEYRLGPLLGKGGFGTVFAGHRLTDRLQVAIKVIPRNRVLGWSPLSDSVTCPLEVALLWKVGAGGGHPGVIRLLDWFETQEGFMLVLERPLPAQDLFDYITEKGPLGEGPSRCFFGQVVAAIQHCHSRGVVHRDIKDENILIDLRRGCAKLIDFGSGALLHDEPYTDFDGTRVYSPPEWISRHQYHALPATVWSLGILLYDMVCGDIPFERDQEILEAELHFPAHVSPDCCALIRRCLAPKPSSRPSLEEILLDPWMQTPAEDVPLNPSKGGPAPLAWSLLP
T2 sequence (P49841 whole entry): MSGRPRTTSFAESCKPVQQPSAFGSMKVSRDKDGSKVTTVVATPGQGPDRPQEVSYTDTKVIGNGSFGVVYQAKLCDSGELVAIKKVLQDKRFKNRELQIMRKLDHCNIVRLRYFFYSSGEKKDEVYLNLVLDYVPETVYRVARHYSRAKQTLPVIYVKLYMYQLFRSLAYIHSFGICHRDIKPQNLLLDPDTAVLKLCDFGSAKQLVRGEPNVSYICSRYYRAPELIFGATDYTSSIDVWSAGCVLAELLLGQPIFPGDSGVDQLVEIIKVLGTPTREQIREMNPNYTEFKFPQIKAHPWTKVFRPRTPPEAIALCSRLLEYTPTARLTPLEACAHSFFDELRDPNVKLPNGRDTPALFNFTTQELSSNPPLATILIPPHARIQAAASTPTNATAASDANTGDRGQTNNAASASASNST
T3 sequence (Q16512 whole entry): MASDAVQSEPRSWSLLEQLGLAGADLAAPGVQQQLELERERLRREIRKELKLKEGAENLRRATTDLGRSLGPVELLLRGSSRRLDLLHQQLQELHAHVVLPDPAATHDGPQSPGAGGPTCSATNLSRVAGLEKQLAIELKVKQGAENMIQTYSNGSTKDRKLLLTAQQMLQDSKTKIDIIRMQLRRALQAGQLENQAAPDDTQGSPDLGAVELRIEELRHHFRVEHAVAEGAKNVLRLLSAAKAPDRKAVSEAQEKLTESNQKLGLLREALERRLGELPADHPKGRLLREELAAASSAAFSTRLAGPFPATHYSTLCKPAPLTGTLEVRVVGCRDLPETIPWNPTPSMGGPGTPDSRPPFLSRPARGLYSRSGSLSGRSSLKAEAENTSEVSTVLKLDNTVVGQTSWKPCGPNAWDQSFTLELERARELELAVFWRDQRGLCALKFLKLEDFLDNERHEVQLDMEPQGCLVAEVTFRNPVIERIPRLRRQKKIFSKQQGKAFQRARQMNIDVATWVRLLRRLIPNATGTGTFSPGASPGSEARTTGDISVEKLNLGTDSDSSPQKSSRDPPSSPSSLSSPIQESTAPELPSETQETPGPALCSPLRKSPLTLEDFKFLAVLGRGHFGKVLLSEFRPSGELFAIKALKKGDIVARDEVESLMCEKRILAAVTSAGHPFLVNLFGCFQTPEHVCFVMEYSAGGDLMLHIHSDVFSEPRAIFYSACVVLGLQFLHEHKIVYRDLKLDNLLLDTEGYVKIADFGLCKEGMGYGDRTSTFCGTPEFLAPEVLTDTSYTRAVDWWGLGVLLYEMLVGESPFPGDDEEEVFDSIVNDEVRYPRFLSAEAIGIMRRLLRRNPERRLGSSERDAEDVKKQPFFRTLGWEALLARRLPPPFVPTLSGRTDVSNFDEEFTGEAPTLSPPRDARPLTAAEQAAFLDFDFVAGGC
ADCK3, sequence (Q8NI60 163-647): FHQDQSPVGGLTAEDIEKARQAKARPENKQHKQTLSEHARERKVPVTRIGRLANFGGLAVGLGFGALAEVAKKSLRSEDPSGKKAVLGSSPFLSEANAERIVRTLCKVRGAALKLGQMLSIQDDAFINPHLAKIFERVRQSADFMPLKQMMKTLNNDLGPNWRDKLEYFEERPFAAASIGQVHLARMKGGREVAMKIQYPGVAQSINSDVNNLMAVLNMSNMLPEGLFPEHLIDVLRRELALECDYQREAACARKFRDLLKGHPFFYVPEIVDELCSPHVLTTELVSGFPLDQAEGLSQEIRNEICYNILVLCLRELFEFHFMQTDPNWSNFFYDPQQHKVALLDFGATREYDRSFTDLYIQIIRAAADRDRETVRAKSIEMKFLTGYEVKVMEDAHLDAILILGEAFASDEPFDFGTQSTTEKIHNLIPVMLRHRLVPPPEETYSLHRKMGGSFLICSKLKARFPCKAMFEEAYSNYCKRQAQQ
T9 sequence (Q16539 whole entry): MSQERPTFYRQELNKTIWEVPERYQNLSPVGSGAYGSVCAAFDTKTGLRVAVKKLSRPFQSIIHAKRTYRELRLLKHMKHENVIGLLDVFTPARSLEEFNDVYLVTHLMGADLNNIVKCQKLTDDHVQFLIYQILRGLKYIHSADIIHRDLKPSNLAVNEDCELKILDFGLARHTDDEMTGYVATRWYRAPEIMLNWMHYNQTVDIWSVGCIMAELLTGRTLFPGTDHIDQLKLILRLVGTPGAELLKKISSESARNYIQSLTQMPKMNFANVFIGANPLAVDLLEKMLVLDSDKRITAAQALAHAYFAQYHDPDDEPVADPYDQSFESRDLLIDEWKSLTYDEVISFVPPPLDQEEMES
T5 sequence (P43250 whole entry): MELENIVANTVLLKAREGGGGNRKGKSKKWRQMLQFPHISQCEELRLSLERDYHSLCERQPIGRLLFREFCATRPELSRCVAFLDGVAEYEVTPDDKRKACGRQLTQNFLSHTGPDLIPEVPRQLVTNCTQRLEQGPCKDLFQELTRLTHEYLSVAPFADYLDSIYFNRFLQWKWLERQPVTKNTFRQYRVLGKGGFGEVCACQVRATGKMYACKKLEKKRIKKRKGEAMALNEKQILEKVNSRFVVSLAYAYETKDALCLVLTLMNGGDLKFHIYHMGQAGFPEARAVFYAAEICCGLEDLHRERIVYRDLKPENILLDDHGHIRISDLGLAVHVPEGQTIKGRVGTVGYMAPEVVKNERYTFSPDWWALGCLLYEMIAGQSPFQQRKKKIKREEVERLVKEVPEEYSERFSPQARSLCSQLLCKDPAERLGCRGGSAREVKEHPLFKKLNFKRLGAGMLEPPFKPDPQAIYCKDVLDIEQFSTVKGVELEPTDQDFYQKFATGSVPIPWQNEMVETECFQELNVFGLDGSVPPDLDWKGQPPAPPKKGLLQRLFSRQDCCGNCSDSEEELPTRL
T7 sequence (Q96RR4 whole entry): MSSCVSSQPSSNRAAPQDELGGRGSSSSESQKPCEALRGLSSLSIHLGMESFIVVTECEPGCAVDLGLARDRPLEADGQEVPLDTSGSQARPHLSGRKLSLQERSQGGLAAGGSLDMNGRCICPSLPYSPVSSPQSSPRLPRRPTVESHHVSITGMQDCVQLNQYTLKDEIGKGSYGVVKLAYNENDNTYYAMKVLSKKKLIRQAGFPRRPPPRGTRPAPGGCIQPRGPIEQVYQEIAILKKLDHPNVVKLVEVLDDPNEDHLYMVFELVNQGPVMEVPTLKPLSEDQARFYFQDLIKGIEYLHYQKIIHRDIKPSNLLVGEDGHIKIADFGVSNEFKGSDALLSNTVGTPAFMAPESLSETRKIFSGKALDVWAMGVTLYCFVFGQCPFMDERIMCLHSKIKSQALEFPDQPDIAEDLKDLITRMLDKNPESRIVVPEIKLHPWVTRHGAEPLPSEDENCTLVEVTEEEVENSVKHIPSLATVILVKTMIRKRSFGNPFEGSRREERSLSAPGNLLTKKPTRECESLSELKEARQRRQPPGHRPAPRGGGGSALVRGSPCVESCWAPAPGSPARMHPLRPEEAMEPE
T8 sequence (P49840 whole entry): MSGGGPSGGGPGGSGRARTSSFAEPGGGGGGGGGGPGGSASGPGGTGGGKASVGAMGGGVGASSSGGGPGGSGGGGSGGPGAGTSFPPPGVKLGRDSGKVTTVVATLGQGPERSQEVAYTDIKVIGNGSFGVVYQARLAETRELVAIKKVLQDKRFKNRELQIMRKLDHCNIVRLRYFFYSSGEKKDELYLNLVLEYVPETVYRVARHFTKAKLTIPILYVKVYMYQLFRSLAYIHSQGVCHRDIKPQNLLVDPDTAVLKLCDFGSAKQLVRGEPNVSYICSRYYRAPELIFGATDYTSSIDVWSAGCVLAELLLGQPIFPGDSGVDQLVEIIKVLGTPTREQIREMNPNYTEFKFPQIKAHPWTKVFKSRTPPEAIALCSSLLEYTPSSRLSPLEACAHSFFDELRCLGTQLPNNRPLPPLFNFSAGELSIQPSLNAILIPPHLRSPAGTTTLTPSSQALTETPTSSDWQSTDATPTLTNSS

SMILES: CCn1c(-c2nonc2N)nc2c(C#CC(C)(C)O)nc(OCCNC)cc21 [GSK949675A]
- Relative Intensity 0.3nM ([1]; 0.3nM compound, DMSO = 1): 1.024
- Relative Intensity 1nM ([1]; 1nM compound, DMSO = 1): 1.092
- Relative Intensity 3nM ([1]; 3nM compound, DMSO = 1): 1.039
- Relative Intensity 10nM ([1]; 10nM compound, DMSO = 1): 0.9797
- Relative Intensity 30nM ([1]; 30nM compound, DMSO = 1): 0.9918
- Relative Intensity 100nM ([1]; 100nM compound, DMSO = 1): 0.907
- Relative Intensity 300nM ([1]; 300nM compound, DMSO = 1): 0.6926
- Relative Intensity 1000nM ([1]; 1000nM compound, DMSO = 1): 0.4818
- Kd [1, 23]: 218 nM
- EC50 [1, 24]: 316 nM
- Relative Intensity 0.3nM ([2]; 0.3nM compound, DMSO = 1): 0.987
- Relative Intensity 1nM ([2]; 1nM compound, DMSO = 1): 0.9621
- Relative Intensity 3nM ([2]; 3nM compound, DMSO = 1): 1.1
- Relative Intensity 10nM ([2]; 10nM compound, DMSO = 1): 0.9042
- Relative Intensity 30nM ([2]; 30nM compound, DMSO = 1): 0.9241
- Relative Intensity 100nM ([2]; 100nM compound, DMSO = 1): 0.7846
- Relative Intensity 300nM ([2]; 300nM compound, DMSO = 1): 0.5456
- Relative Intensity 1000nM ([2]; 1000nM compound, DMSO = 1): 0.3036
- Kd [2, 23]: 171 nM
- EC50 [2, 24]: 322 nM
- Relative Intensity 0.3nM ([3]; 0.3nM compound): 1.026
- Relative Intensity 1nM ([3]; 1nM compound): 1.04
- Relative Intensity 3nM ([3]; 3nM compound): 1.011
- Relative Intensity 10nM ([3]; 10nM compound): 0.946
- Relative Intensity 30nM ([3]; 30nM compound): 0.9307
- Relative Intensity 100nM ([3]; 100nM compound): 0.9366
- Relative Intensity 300nM ([3]; 300nM compound): 0.7358
- Relative Intensity 1000nM ([3]; 1000nM compound): 0.4262
- Relative Intensity 0.3nM ([4]; 0.3nM compound, DMSO = 1): 1.295
- Relative Intensity 1nM ([4]; 1nM compound, DMSO = 1): 1.2278
- Relative Intensity 3nM ([4]; 3nM compound, DMSO = 1): 1.244
- Relative Intensity 10nM ([4]; 10nM compound, DMSO = 1): 1.16
- Relative Intensity 30nM ([4]; 30nM compound, DMSO = 1): 1.169
- Relative Intensity 100nM ([4]; 100nM compound, DMSO = 1): 0.9393
- Relative Intensity 300nM ([4]; 300nM compound, DMSO = 1): 0.5982
- Relative Intensity 1000nM ([4]; 1000nM compound, DMSO = 1): 0.3002
- Kd [4, 23]: 221 nM
- EC50 [4, 24]: 221 nM

SMILES: CCc1cc2c(cc1N1CCC(N3CCOCC3)CC1)C(C)(C)c1[nH]c3cc(C#N)ccc3c1C2=O [Alectinib]
- CATDS [5]: 0
- CATDS [6]: 0
- CATDS [7]: 0
- CATDS [8]: 0
- CATDS [9]: 0
- CATDS [10]: 0
- CATDS [11]: 0
- CATDS [12]: 0
- CATDS [13]: 0
- CATDS [14]: 0
- CATDS [15]: 0
- CATDS [16]: 0
- CATDS [17]: 0
- CATDS [18]: 0
- CATDS [19]: 0
- CATDS [20]: 0
- CATDS [21]: 0
- CATDS [22]: 0

- CATDS [5]: 0
- CATDS [6]: 0
- CATDS [7]: 0
- CATDS [8]: 0
- CATDS [9]: 0
- CATDS [10]: 0
- CATDS [11]: 0
- CATDS [12]: 0.1122
- CATDS [13]: 0.1015
- CATDS [14]: 0
- CATDS [15]: 0
- CATDS [16]: 0
- CATDS [17]: 0
- CATDS [18]: 0
- CATDS [19]: 0.05532
- CATDS [20]: 0
- CATDS [21]: 0
- CATDS [22]: 0
SMILES: Nc1ncnc2[nH]c(-c3ccccc3)nc12 [AH5015_KCGS]

SMILES: N#CC1(c2ccc(NC(=O)c3cccnc3NCc3ccncc3)cc2)CCCC1 [Apatinib]
- CATDS [5]: 0
- CATDS [6]: 0
- CATDS [7]: 0
- CATDS [8]: 0
- CATDS [9]: 0
- CATDS [10]: 0
- CATDS [11]: 0
- CATDS [12]: 0
- CATDS [13]: 0
- CATDS [14]: 0
- CATDS [15]: 0
- CATDS [16]: 0
- CATDS [17]: 0
- CATDS [18]: 0
- CATDS [19]: 0
- CATDS [20]: 0
- CATDS [21]: 0
- CATDS [22]: 0
